In US6274715A, “Tricyclic erythromycin derivatives” (priority 1997, dated 2001):
In brackets after ≈: the same amount, converted by molar mass.

What was measured:
Type in all cases: cell-based
[1] = tested on: STAPHYLOCOCCUS AUREUS ATCC 6538P; test: In vitro antibacterial activity, MIC, BHI agar dilution; conditions: S. aureus ATCC 6538P, 35-37° C., 20 to 24 hours, unit assumed
[2] = tested on: STAPHYLOCOCCUS AUREUS A5177; test: as above; conditions: S. aureus A5177, unit assumed
[3] = tested on: STAPHYLOCOCCUS AUREUS A-5278; test: as above; conditions: S. aureus A-5278, unit assumed
[4] = tested on: STAPHYLOCOCCUS AUREUS CMX 642A; test: as above; conditions: S. aureus CMX 642A, unit assumed
[5] = tested on: STAPHYLOCOCCUS AUREUS NCTC10649M; test: as above; conditions: S. aureus NCTC10649M, unit assumed
[6] = tested on: STAPHYLOCOCCUS AUREUS CMX 553; test: as above; conditions: S. aureus CMX 553, unit assumed
[7] = tested on: STAPHYLOCOCCUS AUREUS 1775; test: as above; conditions: S. aureus 1775, unit assumed
[8] = tested on: STAPHYLOCOCCUS EPIDERMIDIS 3519; conditions: S. epidermidis 3519; BHI agar; unit assumed
EN[…] ATCC 8043 = test: In vitro antibacterial activity, MIC, BHI agar dilution; conditions: E. faecium ATCC 8043, unit assumed
How it was run: (§1)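 BHI agar dilution: twelve plates with successive compound dilutions, inoculated by replicator with 1:100 culture dilutions (1:10 for slow growers such as Micrococcus and Streptococcus), 20 to 24 hours at 35-37° C. MIC was the lowest concentration giving no growth, slight haze or sparse isolated colonies versus drug-free control; erythromycin A as class reference.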

M[…] ATCC 4698 = test: as above; conditions: M. luteus ATCC 4698, unit assumed
How it was run: as §1

M[…] ATCC 9341 = test: as above; conditions: M. luteus ATCC 9341, unit assumed
How it was run: as §1

STR[…] 508 = test: as above; conditions: S. agalactiae CMX 508, unit assumed
How it was run: as §1

[9] = tested on: STREPTOCOCCUS BOVIS A-5169; test: as above; conditions: S. bovis A-5169, unit assumed
[10] = tested on: STREPTOCOCCUS PYOGENES EES61; test: as above; conditions: S. pyogenes EES61, unit assumed
[11] = tested on: STREPTOCOCCUS PYOGENES 930; test: as above; conditions: S. pyogenes 930, unit assumed
[12] = tested on: STREPTOCOCCUS PYOGENES PIU 2548; test: as above; conditions: S. pyogenes PIU 2548, unit assumed
ESCHERICHIA COLI JUHL = conditions: E. coli JUHL; BHI agar; unit assumed
ESCHERICHIA COLI SS = test: In vitro antibacterial activity, MIC, BHI agar dilution; conditions: E. coli SS, unit assumed
ESCHERICHIA COLI DC-2 = test: as above; conditions: E. coli DC-2, unit assumed
ESCHERICHIA COLI H560 = test: as above; conditions: E. coli H560, unit assumed
ESCHERICHIA COLI KNK 437 = conditions: E. coli KNK 437; BHI agar; unit assumed
[13] = tested on: ENTEROBACTER AEROGENES ATCC 13048; test: In vitro antibacterial activity, MIC, BHI agar dilution; conditions: E. aerogenes ATCC 13048, unit assumed
[14] = tested on: KLEBSIELLA PNEUMONIAE ATCC 8045; test: as above; conditions: K. pneumoniae ATCC 8045, unit assumed
[15] = tested on: PROVIDENCIA STUARTII CMX 640; conditions: P. stuartii CMX 640; BHI agar; unit assumed
[16] = tested on: PSEUDOMONAS AERUGINOSA BMH10; test: In vitro antibacterial activity, MIC, BHI agar dilution; conditions: P. aeruginosa BMH10, unit assumed
[17] = tested on: PSEUDOMONAS AERUGINOSA 5007; test: as above; conditions: P. aeruginosa 5007, unit assumed
[18] = tested on: PSEUDOMONAS AERUGINOSA K799/WT; test: as above; conditions: P. aeruginosa K799/WT, unit assumed
[19] = tested on: PSEUDOMONAS AERUGINOSA K799/61; test: as above; conditions: P. aeruginosa K799/61, unit assumed
PSEUDOMONAS CEPACIA 296I = test: as above; conditions: P. cepacia 296I, unit assumed
[20] = tested on: PSEUDOMONAS AERUGINOSA DPHD-5263; test: as above; conditions: P. aeruginosa DPHD-5263, unit assumed
[21] = tested on: PSEUDOMONAS AERUGINOSA DPHD-2862; test: as above; conditions: P. aeruginosa DPHD-2862, unit assumed
CANDIDA ALBICANS CCH 442 = test: as above; conditions: C. albicans CCH 442, unit assumed
[22] = tested on: MYCOBACTERIUM SMEGMATIS ATCC 114; test: as above; conditions: M. smegmatis ATCC 114, unit assumed

Row | SMILES | MIC [1] | MIC [2] | MIC [3] | MIC [4] | MIC [5] | MIC [6] | MIC [7] | MIC [8] | MIC (EN[…] ATCC 8043) | MIC (M[…] ATCC 4698) | MIC (M[…] ATCC 9341) | MIC (STR[…] 508) | MIC [9] | MIC [10] | MIC [11] | MIC [12] | MIC (ESCHERICHIA COLI JUHL) | MIC (ESCHERICHIA COLI SS) | MIC (ESCHERICHIA COLI DC-2) | MIC (ESCHERICHIA COLI H560) | also measured
1 | CCC1OC(=O)C(C)C(=O)C(C)C(OC2OC(C)CC(N(C)C)C2O)C(C)(OC)CC(C)C2=NC(CN(C)C)CN3C(=O)OC1(C)C3C2C (stereo not drawn) [Example 97] | 0.2 mg/L (≈ 0.288 µM) | 0.2 mg/L (≈ 0.288 µM) | > 100 mg/L | 0.2 mg/L (≈ 0.288 µM) | 0.78 mg/L (≈ 1.12 µM) | 0.39 mg/L (≈ 0.561 µM) | > 100 mg/L | 0.39 mg/L (≈ 0.561 µM) | 0.1 mg/L (≈ 0.144 µM) | 0.78 mg/L (≈ 1.12 µM) | 0.05 mg/L (≈ 0.072 µM) | 0.02 mg/L (≈ 0.0288 µM) | 0.01 mg/L (≈ 0.0144 µM) | 0.02 mg/L (≈ 0.0288 µM) | > 100 mg/L | 0.2 mg/L (≈ 0.288 µM) | 50 mg/L (≈ 72 µM) | 0.39 mg/L (≈ 0.561 µM) | 50 mg/L (≈ 72 µM) | 25 mg/L (≈ 36 µM) | MIC (ESCHERICHIA COLI KNK 437): 50 mg/L (≈ 72 µM); MIC [13]: 100 mg/L (≈ 144 µM); MIC [14]: 100 mg/L (≈ 144 µM); MIC [15]: > 100 mg/L; MIC [16]: > 100 mg/L; MIC [17]: > 100 mg/L; MIC [18]: > 100 mg/L; MIC [19]: 0.78 mg/L (≈ 1.12 µM); MIC (PSEUDOMONAS CEPACIA 296I): > 100 mg/L; MIC [20]: > 100 mg/L; MIC [21]: > 100 mg/L; MIC (CANDIDA ALBICANS CCH 442): > 100 mg/L; MIC [22]: 12.5 mg/L (≈ 18 µM)
2 | CC[C@H]1OC(=O)[C@H](C)C(=O)[C@H](C)[C@@H](O[C@@H]2O[C@H](C)C[C@H](N(C)C)[C@H]2O)[C@](C)(OC)C[C@@H](C)C2=N[C@H](COCc3ccccc3F)CN3C(=O)O[C@@]1(C)[C@H]3[C@H]2C [Example 102] | 0.2 mg/L (≈ 0.258 µM) | 0.1 mg/L (≈ 0.129 µM) | > 100 mg/L | 0.2 mg/L (≈ 0.258 µM) | 0.1 mg/L (≈ 0.129 µM) | 0.1 mg/L (≈ 0.129 µM) | > 100 mg/L | 0.2 mg/L (≈ 0.258 µM) | 0.01 mg/L (≈ 0.0129 µM) | 0.02 mg/L (≈ 0.0258 µM) | ≤ 0.005 mg/L | 0.01 mg/L (≈ 0.0129 µM) | 0.01 mg/L (≈ 0.0129 µM) | 0.01 mg/L (≈ 0.0129 µM) | > 100 mg/L | 0.2 mg/L (≈ 0.258 µM) | 100 mg/L (≈ 129 µM) | 0.39 mg/L (≈ 0.503 µM) | > 100 mg/L | 50 mg/L (≈ 64.4 µM) | MIC (ESCHERICHIA COLI KNK 437): > 100 mg/L; MIC [13]: > 100 mg/L; MIC [14]: > 100 mg/L; MIC [15]: > 100 mg/L; MIC [16]: > 100 mg/L; MIC [17]: > 100 mg/L; MIC [18]: > 100 mg/L; MIC [19]: 3.1 mg/L (≈ 4 µM); MIC (PSEUDOMONAS CEPACIA 296I): 50 mg/L (≈ 64.4 µM); MIC [20]: > 100 mg/L; MIC [21]: > 100 mg/L; MIC (CANDIDA ALBICANS CCH 442): > 100 mg/L; MIC [22]: 0.01 mg/L (≈ 0.0129 µM)
3 | CC[C@H]1OC(=O)[C@H](C)C(=O)[C@H](C)[C@@H](O[C@@H]2O[C@H](C)C[C@H](N(C)C)[C@H]2O)[C@](C)(OC)C[C@@H](C)C2=N[C@H](COCc3ccc(Br)cc3)CN3C(=O)O[C@@]1(C)[C@H]3[C@H]2C [Example 103] | 0.05 mg/L (≈ 0.0597 µM) | 0.05 mg/L (≈ 0.0597 µM) | 100 mg/L (≈ 119 µM) | 0.05 mg/L (≈ 0.0597 µM) | 0.05 mg/L (≈ 0.0597 µM) | 0.05 mg/L (≈ 0.0597 µM) | 100 mg/L (≈ 119 µM) | 0.05 mg/L (≈ 0.0597 µM) | ≤ 0.005 mg/L | ≤ 0.005 mg/L | ≤ 0.005 mg/L | ≤ 0.005 mg/L | ≤ 0.005 mg/L | ≤ 0.005 mg/L | 25 mg/L (≈ 29.9 µM) | 0.05 mg/L (≈ 0.0597 µM) | 100 mg/L (≈ 119 µM) | 0.39 mg/L (≈ 0.466 µM) | 100 mg/L (≈ 119 µM) | 100 mg/L (≈ 119 µM) | MIC (ESCHERICHIA COLI KNK 437): > 100 mg/L; MIC [13]: > 100 mg/L; MIC [14]: > 100 mg/L; MIC [15]: > 100 mg/L; MIC [16]: > 100 mg/L; MIC [17]: > 100 mg/L; MIC [18]: > 100 mg/L; MIC [19]: 0.78 mg/L (≈ 0.932 µM); MIC (PSEUDOMONAS CEPACIA 296I): 50 mg/L (≈ 59.7 µM); MIC [20]: > 100 mg/L; MIC [21]: > 100 mg/L; MIC (CANDIDA ALBICANS CCH 442): 50 mg/L (≈ 59.7 µM); MIC [22]: 0.2 mg/L (≈ 0.239 µM)
